Measurements taken from US9394297B2, “Amides as pim inhibitors” (AMGEN INC., priority 2012, dated 2016).
Where a name gives a salt, the structure may show the parent alone. Read-outs that look alike come from different tables or passages of the source.

How the values were obtained:
Pim-1 = Pim-1 (Homo sapiens (Human), UniProt P11309); test: Pim-Mn enzyme assay (HTRF, 384-well), Pim-1; format: biochemical; conditions: read-out: Pim-1-Mn IC50 IP
Pim-2 = Pim-2 (Homo sapiens (Human), UniProt Q9P1W9); test: Pim-Mn enzyme assay (HTRF, 384-well), Pim-2; format: biochemical; conditions: read-out: Pim-2-Mn IC50 IP
Chain of Pim-2 (Q9P1W9 whole entry): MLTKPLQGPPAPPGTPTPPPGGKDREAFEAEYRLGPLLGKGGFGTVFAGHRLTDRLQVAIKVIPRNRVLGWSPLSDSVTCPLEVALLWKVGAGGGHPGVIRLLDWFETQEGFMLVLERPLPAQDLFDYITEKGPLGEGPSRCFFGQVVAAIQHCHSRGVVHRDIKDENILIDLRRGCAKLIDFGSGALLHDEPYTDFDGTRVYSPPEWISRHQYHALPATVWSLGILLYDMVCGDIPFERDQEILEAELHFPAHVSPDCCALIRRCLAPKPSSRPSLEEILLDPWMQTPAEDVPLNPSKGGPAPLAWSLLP

KMS-12-BM cell lines = test: KMS12 #2 flow cytometry assay (phospho-BAD Ser112); format: cell-based; conditions: Homo sapiens, 110 min; KMS-12-BM cells, pBAD Ser112 by flow cytometry, 110 min with compound; read-out: KMS-12-Flow IC50 IP
[1] = Pim-1 enzyme 5 pM, ATP 1.5 μM, BAD (S112) 0.5 μM, HTRF, 22-point curve
[2] = Pim-2 enzyme 0.5 pM, ATP 1.5 μM, BAD (S112) 0.5 μM, HTRF, 22-point curve

Chain of Pim-1 (P11309 whole entry): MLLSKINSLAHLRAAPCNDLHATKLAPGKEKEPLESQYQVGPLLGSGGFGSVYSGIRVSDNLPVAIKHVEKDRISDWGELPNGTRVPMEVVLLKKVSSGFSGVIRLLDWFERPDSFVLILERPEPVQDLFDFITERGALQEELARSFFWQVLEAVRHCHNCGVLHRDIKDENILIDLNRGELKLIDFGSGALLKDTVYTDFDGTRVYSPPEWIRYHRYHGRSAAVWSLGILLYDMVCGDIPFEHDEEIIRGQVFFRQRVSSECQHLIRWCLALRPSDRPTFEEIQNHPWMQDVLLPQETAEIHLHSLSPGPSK

Row | SMILES | IC50 (Pim-1; [1]) [nM] | IC50 (Pim-2; [2]) [nM] | IC50 (KMS-12-BM cell lines) [nM] | IC50 (Pim-1) [nM] | IC50 (Pim-2) [nM]
1 | Cc1nc2cccc(-c3cc4c([nH]3)CCNC4=O)c2nc1-c1ccoc1C [Example 433, 2-(2-Methyl-3-(2-methylfuran-3-yl)quinoxalin-5-yl)-6,7-dihydro-1H-pyrrolo[3,2-c]pyridin-4(5H)-one] | 30.9 | 40.9 | 8400 |  | 
2 | Cc1nc2cccc(-c3cc4c([nH]3)CCNC4=O)c2nc1-c1ccccc1 [Example 424, 2-(2-Methyl-3-phenylquinoxalin-5-yl)-6,7-dihydro-1H-pyrrolo[3,2-c]pyridin-4(5H)-one] | 82.4 | 82.1 | > 40000 |  | 
3 | Cc1nc2ccc(F)c(-c3cc4c([nH]3)CCNC4=O)c2nc1NC(C)C [Example 373, 2-(6-fluoro-3-(isopropylamino)-2-methylquinoxalin-5-yl)-6,7-dihydro-1H-pyrrolo[3,2-c]pyridin-4(5H)-one 2,2,2-trifluoroacetate] | 1.8 | 1.63 | 94.3 |  | 
4 | Cc1nc2ccc(F)c(-c3cc4c([nH]3)C3(CC3)NC4=O)c2nc1NC(C)(C)C [Example 295, 2′-(3-(tert-butylamino)-6-fluoro-2-methylquinoxalin-5-yl)-1′H-spiro[cyclopropane-1,6′-pyrrolo[3,4-b]pyrrol]-4′(5′H)-one] |  | 0.52 | 41 | 0.562 | 
5 | Cc1nc2cccc(-c3cc4c([nH]3)CCNC4=O)c2nc1-c1ccccc1Cl [Example 427, 2-(3-(2-Chlorophenyl)-2-methylquinoxalin-5-yl)-6,7-dihydro-1H-pyrrolo[3,2-c]pyridin-4(5H)-one] | 23.3 | 82 | > 40000 |  | 
6 | Cc1nc2ccc(F)c(-c3cc4c(=O)[nH]ccc4[nH]3)c2nc1NC(C)(C)C [Example 371, 2-(3-(tert-butylamino)-6-fluoro-2-methylquinoxalin-5-yl)-1H-pyrrolo[3,2-c]pyridin-4(5H)-one 2,2,2-trifluoroacetate salt] |  |  | 148 | 0.246 | 0.0667
7 | Cc1nc2cccc(-c3cc4c([nH]3)C3(CC3)NC4=O)c2nc1NCC(F)F [Example 331, 2′-(3-((2,2-difluoroethyl)amino)-2-methylquinoxalin-5-yl)-1′H-spiro[cyclopropane-1,6′-pyrrolo[3,4-b]pyrrol]-4′(5′H)-one] | 1.67 | 1.12 | 130 |  | 
8 | Cc1nc2cccc(-c3cc(C(N)=O)n[nH]3)c2nc1NC(C)(C)C [Example 467, 5-(3-(tert-butylamino)-2-methylquinoxalin-5-yl)-1H-pyrazole-3-carboxamide] | 21.6 | 8.9 | 3880 |  | 
9 | Cc1nc2cccc(-c3cc4c([nH]3)CCNC4=O)c2nc1-c1ccccn1 [Example 429, 2-(2-Methyl-3-(pyridin-2-yl)quinoxalin-5-yl)-6,7-dihydro-1H-pyrrolo[3,2-c]pyridin-4(5H)-one] | 212 | 167 | 8730 |  | 
10 | CC(C)(C)Nc1nc2c(-c3cc4c([nH]3)CCNC4=O)cccc2nc1N1CCC1 [Example 347, 2-(2-(1-azetidinyl)-3-(tert-butylamino)-5-quinoxalinyl)-1,5,6,7-tetrahydro-4H-pyrrolo[3,2-c]pyridin-4-one] |  |  | 3660 | 4.55 | 10.5
11 | Cc1nc2cccc(-c3cc4c([nH]3)CCNC4=O)c2nc1NC(C)(C)CN [Example 341, 2-(3-((2-amino-1,1-dimethylethyl)amino)-2-methyl-5-quinoxalinyl)-1,5,6,7-tetrahydro-4H-pyrrolo[3,2-c]pyridin-4-one] | 6.85 |  | 7830 |  | 10.7
12 | Cc1ccccc1-c1nc2c(-c3cc4c([nH]3)CCNC4=O)cccc2nc1C [Example 426, 2-(2-Methyl-3-(o-tolyl)quinoxalin-5-yl)-6,7-dihydro-1H-pyrrolo[3,2-c]pyridin-4(5H)-one] | 52.3 | 127 | > 40000 |  | 
13 | CNc1nc2cccc(-c3cc4c([nH]3)CCNC4=O)c2nc1NC(C)(C)C [Example 344, 2-(3-(tert-butylamino)-2-(methylamino)-5-quinoxalinyl)-1,5,6,7-tetrahydro-4H-pyrrolo[3,2-c]pyridin-4-one] | 1.19 | 5.61 | 202 |  | 

Continued by falling IC50 (Pim-1; [1]), values first:

Row | IC50 (Pim-1; [1]) [nM] | IC50 (Pim-2; [2]) [nM] | IC50 (KMS-12-BM cell lines) [nM] | SMILES | IC50 (Pim-1) [nM] | IC50 (Pim-2) [nM]
14 | 11.4 | 36 | 12400 | COCCN(CCOC)CCC(C)(C)Nc1nc2c(-c3cc4c([nH]3)CNC4=O)cccc2c(=O)n1C [Example 473, 2-((4-(bis(2-methoxyethyl)amino)-2-methylbutan-2-yl)amino)-3-methyl-8-(4-oxo-1,4,5,6-tetrahydropyrrolo[3,4-b]pyrrol-2-yl)quinazolin-4(3H)-one] |  | 
15 | 5.44 | 3.71 | 378 | Cc1nc2cccc(-c3cc4c(=O)[nH]ncc4[nH]3)c2nc1NC(C)(C)C [Example 423, 2-(3-(tert-butylamino)-2-methylquinoxalin-5-yl)-1H-pyrrolo[2,3-d]pyridazin-4(5H)-one] |  | 
16 | 5.4 | 7.94 | 3390 | Cc1nc2cccc(-c3cc4c([nH]3)C(COCc3ccccc3)NC4=O)c2nc1NC(C)(C)C (racemic) [Example 468, (6R)-6-((benzyloxy)methyl)-2-(3-(tert-butylamino)-2-methyl-5-quinoxalinyl)-5,6-dihydropyrrolo[3,4-b]pyrrol-4(1H)-one and (6S)-6-((benzyloxy)methyl)-2-(3-(tert-butylamino)-2-methyl-5-quinoxalinyl)-5,6-dihydropyrrolo[3,4-b]pyrrol-4(1H)-one] |  | 
17 | 4 | 3 | 344 | C[C@H](O)c1nc2cccc(-c3cc4c([nH]3)CCNC4=O)c2nc1NC(C)(C)C [Example 310, (S)-2-(3-(tert-butylamino)-2-(1-hydroxyethyl)quinoxalin-5-yl)-6,7-dihydro-1H-pyrrolo[3,2-c]pyridin-4(5H)-one] |  | 
18 | 2.82 | 1.32 | 145 | Cc1nc2cccc(-c3cc4c([nH]3)CCNC4=O)c2nc1NCC(F)(F)F [Example 336, 2-(2-methyl-3-((2,2,2-trifluoroethyl)amino)-5-quinoxalinyl)-1,5,6,7-tetrahydro-4H-pyrrolo[3,2-c]pyridin-4-one] |  | 
19 | 2.26 | 2.3 | 109 | Cc1nc2ccc(F)c(-c3cc4c([nH]3)[C@@H]([C@H](C)O)NC4=O)c2nc1NC1CC1 [Example 353, (6S)-2-(3-(cyclopropylamino)-6-fluoro-2-methyl-5-quinoxalinyl)-6-((1S)-1-hydroxyethyl)-5,6-dihydropyrrolo[3,4-b]pyrrol-4(1H)-one] |  | 
20 | 1.73 | 1.82 | 251 | Cc1nc2cccc(-c3cc4c([nH]3)[C@H](CO)NC4=O)c2nc1NC1(C)CC1 [Example 362, (R)-6-(hydroxymethyl)-2-(2-methyl-3-((1-methylcyclopropyl)amino)quinoxalin-5-yl)-5,6-dihydropyrrolo[3,4-b]pyrrol-4 (1H)-one] |  | 
21 | 1.63 | 1.45 | 590 | C#Cc1nc2cccc(-c3cc4c([nH]3)CCNC4=O)c2nc1NC(C)(C)C [Example 307, 2-(3-(tert-butylamino)-2-ethynylquinoxalin-5-yl)-6,7-dihydro-1H-pyrrolo[3,2-c]pyridin-4(5H)-one] |  | 
22 | 1.23 | 2.23 | 165 | Cc1nc2cccc(-c3cc4c([nH]3)[C@@H](C)NC4=O)c2nc1NCC(F)(F)F [Example 294, (6R)-6-methyl-2-(2-methyl-3-((2,2,2-trifluoroethyl)amino)-5-quinoxalinyl)-5,6-dihydropyrrolo[3,4-b]pyrrol-4(1H)-one] |  | 
23 | 1.05 | 1.27 | 177 | CC(C)(C)Nc1nc2c(-c3cc4c([nH]3)CCNC4=O)cccc2nc1/C=N/O [Example 308, (E)-3-(tert-butylamino)-5-(4-oxo-4,5,6,7-tetrahydro-1H-pyrrolo[3,2-c]pyridin-2-yl)quinoxaline-2-carbaldehyde oxime] |  | 
24 | 1 | 2.25 | 2730 | CC(C)(C)Nc1nc2c(-c3cc4c([nH]3)CCNC4=O)cccc2nc1Cl [Example 345, 2-(3-(tert-butylamino)-2-chloro-5-quinoxalinyl)-1,5,6,7-tetrahydro-4H-pyrrolo[3,2-c]pyridin-4-one] |  | 
25 | 0.345 | 0.297 | 142 | Cc1nc2cccc(-c3cc4c([nH]3)CNC4=O)c2nc1NC1CC1 [Example 363, 2-(3-(cyclopropylamino)-2-methylquinoxalin-5-yl)-5,6-dihydropyrrolo[3,4-b]pyrrol-4(1H)-one] |  | 
26 | 0.271 | 0.195 | 123 | CCc1nc2cccc(-c3cc4c([nH]3)CCNC4=O)c2nc1NC(C)(C)C [Example 312, 2-(3-(tert-butylamino)-2-ethylquinoxalin-5-yl)-6,7-dihydro-1H-pyrrolo[3,2-c]pyridin-4(5H)-one] |  | 
27 | 0.184 | 0.162 | 11.5 | Cc1nc2ccc(F)c(-c3cc4c([nH]3)CCNC4=O)c2nc1NC1(C)CC1 [Example 369, 2-(6-fluoro-2-methyl-3-((1-methylcyclopropyl)amino)quinoxalin-5-yl)-6,7-dihydro-1H-pyrrolo[3,2-c]pyridin-4(5H)-one 2,2,2-trifluoroacetate] |  | 
28 | 0.0339 | 0.0783 | 49.6 | Cc1nc2cccc(-c3[nH]c4c(c3Cl)C(=O)NC4)c2nc1NC1(C)CC1 [Example 358, 3-Chloro-2-(2-methyl-3-((1-methylcyclopropyl)amino)quinoxalin-5-yl)-5,6-dihydropyrrolo[3,4-b]pyrrol-4(1H)-one] |  | 
